{"source": "patent US6358885B1", "about": "“Substituted phenylheterocyclic herbicides” (Mississippi State University, priority 1992, dated 2002)", "assay_in_all_cases": "Test B preemergence/postemergence greenhouse plant response rating 0 to 10", "key": {"bedstraw": {"test_system": "bedstraw", "format": "in vivo, Galium aparine", "details": "for Plant response rating, Bedstraw: 0 to 10 scale", "in_short": "(§1)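 Both application timings were run together: seeds got compound preemergence, and established seedlings (two to eighteen cm) got it postemergence. Non-phytotoxic solvent carried the chemical. Ratings are visual, versus controls, at twelve to sixteen days.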"}, "sorghum": {"test_system": "sorghum", "format": "in vivo, Sorghum bicolor", "details": "0 to 10 scale", "in_short": "as §1"}, "cotton": {"test_system": "cotton", "format": "in vivo, Gossypium hirsutum", "details": "for Plant response rating, Cotton: 0 to 10 scale", "in_short": "as §1"}, "wheat": {"test_system": "wheat", "format": "in vivo, Triticum aestivum", "details": "0 to 10 scale", "in_short": "as §1"}, "sugar beet": {"test_system": "sugar beet", "format": "in vivo, Beta vulgaris", "details": "0 to 10 scale", "in_short": "as §1"}, "wild oat": {"test_system": "wild oat", "format": "in vivo, Avena fatua", "details": "0 to 10 scale", "in_short": "as §1"}, "lambsquarters": {"test_system": "lambsquarters", "format": "in vivo, Chenopodium album", "details": "0 to 10 scale", "in_short": "as §1"}, "blackgrass": {"test_system": "blackgrass", "format": "in vivo, Alopecurus myosuroides", "details": "for Plant response rating, Blackgrass: 0 to 10 scale", "in_short": "as §1"}, "barley": {"test_system": "barley", "format": "in vivo, Hordeum vulgare", "details": "for Plant response rating, Barley: 0 to 10 scale", "in_short": "as §1"}}}
{"smiles": "CC(C)Oc1cc(-c2nn3c(c2Cl)CCCC3)c(F)cc1Cl", "note": "[Compound 21]", "values": [{"measurement": "Plant response rating (0 to 10 scale), Bedstraw", "setting": "bedstraw; POSTEMERGENCE, Rate 50 g/ha", "result": 6}, {"measurement": "Plant response rating, Bedstraw", "setting": "bedstraw; POSTEMERGENCE, Rate 200 g/ha", "result": 9}, {"measurement": "Plant response rating, Bedstraw", "setting": "bedstraw; PREEMERGENCE, Rate 50 g/ha", "result": 2}, {"measurement": "Plant response rating, Bedstraw", "setting": "bedstraw; Rate 200 g/ha, PREEMERGENCE", "result": 9}, {"measurement": "Plant response rating, Sorghum", "setting": "sorghum; POSTEMERGENCE, Rate 50 g/ha", "result": 5}, {"measurement": "Plant response rating, Sorghum", "setting": "sorghum; POSTEMERGENCE, Rate 200 g/ha", "result": 6}, {"measurement": "Plant response rating, Sorghum", "setting": "sorghum; PREEMERGENCE, Rate 50 g/ha", "result": 0}, {"measurement": "Plant response rating, Sorghum", "setting": "sorghum; Rate 200 g/ha, PREEMERGENCE", "result": 2}, {"measurement": "Plant response rating (0 to 10 scale), Cotton", "setting": "cotton; POSTEMERGENCE, Rate 50 g/ha", "result": 10}, {"measurement": "Plant response rating, Cotton", "setting": "cotton; POSTEMERGENCE, Rate 200 g/ha", "result": 10}, {"measurement": "Plant response rating, Cotton", "setting": "cotton; PREEMERGENCE, Rate 50 g/ha", "result": 2}, {"measurement": "Plant response rating, Cotton", "setting": "cotton; Rate 200 g/ha, PREEMERGENCE", "result": 7}, {"measurement": "Plant response rating, Wheat", "setting": "wheat; POSTEMERGENCE, Rate 50 g/ha", "result": 3}, {"measurement": "Plant response rating, Wheat", "setting": "wheat; POSTEMERGENCE, Rate 200 g/ha", "result": 8}, {"measurement": "Plant response rating, Wheat", "setting": "wheat; PREEMERGENCE, Rate 50 g/ha", "result": 3}, {"measurement": "Plant response rating, Wheat", "setting": "wheat; Rate 200 g/ha, PREEMERGENCE", "result": 2}, {"measurement": "Plant response rating, Sugar beet", "setting": "sugar beet; POSTEMERGENCE, Rate 50 g/ha", "result": 10}, {"measurement": "Plant response rating, Sugar beet", "setting": "sugar beet; POSTEMERGENCE, Rate 200 g/ha", "result": 10}, {"measurement": "Plant response rating, Sugar beet", "setting": "sugar beet; PREEMERGENCE, Rate 50 g/ha", "result": 10}, {"measurement": "Plant response rating, Sugar beet", "setting": "sugar beet; Rate 200 g/ha, PREEMERGENCE", "result": 9}, {"measurement": "Plant response rating, Wild oat", "setting": "wild oat; POSTEMERGENCE, Rate 50 g/ha", "result": 4}, {"measurement": "Plant response rating, Wild oat", "setting": "wild oat; POSTEMERGENCE, Rate 200 g/ha", "result": 6}, {"measurement": "Plant response rating, Wild oat", "setting": "wild oat; Rate 200 g/ha, PREEMERGENCE", "result": 6}, {"measurement": "Plant response rating, Lambsquarter", "setting": "lambsquarters; POSTEMERGENCE, Rate 50 g/ha", "result": 10}, {"measurement": "Plant response rating, Lambsquarter", "setting": "lambsquarters; POSTEMERGENCE, Rate 200 g/ha", "result": 10}, {"measurement": "Plant response rating, Lambsquarter", "setting": "lambsquarters; PREEMERGENCE, Rate 50 g/ha", "result": 10}, {"measurement": "Plant response rating, Lambsquarter", "setting": "lambsquarters; Rate 200 g/ha, PREEMERGENCE", "result": 10}, {"measurement": "Plant response rating (0 to 10 scale), Blackgrass", "setting": "blackgrass; POSTEMERGENCE, Rate 50 g/ha", "result": 3}, {"measurement": "Plant response rating, Blackgrass", "setting": "blackgrass; POSTEMERGENCE, Rate 200 g/ha", "result": 5}, {"measurement": "Plant response rating, Blackgrass", "setting": "blackgrass; PREEMERGENCE, Rate 50 g/ha", "result": 6}, {"measurement": "Plant response rating, Blackgrass", "setting": "blackgrass; Rate 200 g/ha, PREEMERGENCE", "result": 7}, {"measurement": "Plant response rating (0 to 10 scale), Barley", "setting": "barley; POSTEMERGENCE, Rate 50 g/ha", "result": 6}, {"measurement": "Plant response rating, Barley", "setting": "barley; POSTEMERGENCE, Rate 200 g/ha", "result": 4}, {"measurement": "Plant response rating, Barley", "setting": "barley; PREEMERGENCE, Rate 50 g/ha", "result": 0}, {"measurement": "Plant response rating, Barley", "setting": "barley; Rate 200 g/ha, PREEMERGENCE", "result": 2}]}
{"smiles": "Fc1cc(Cl)c(OCc2ccccc2)cc1-c1nn2c(c1Cl)CCCC2", "note": "[Compound 22]", "values": [{"measurement": "Plant response rating (0 to 10 scale), Bedstraw", "setting": "bedstraw; POSTEMERGENCE, Rate 50 g/ha", "result": 8}, {"measurement": "Plant response rating, Bedstraw", "setting": "bedstraw; POSTEMERGENCE, Rate 200 g/ha", "result": 8}, {"measurement": "Plant response rating, Bedstraw", "setting": "bedstraw; Rate 200 g/ha, PREEMERGENCE", "result": 10}, {"measurement": "Plant response rating, Sorghum", "setting": "sorghum; POSTEMERGENCE, Rate 50 g/ha", "result": 5}, {"measurement": "Plant response rating, Sorghum", "setting": "sorghum; POSTEMERGENCE, Rate 200 g/ha", "result": 5}, {"measurement": "Plant response rating, Sorghum", "setting": "sorghum; PREEMERGENCE, Rate 50 g/ha", "result": 0}, {"measurement": "Plant response rating, Sorghum", "setting": "sorghum; Rate 200 g/ha, PREEMERGENCE", "result": 3}, {"measurement": "Plant response rating (0 to 10 scale), Cotton", "setting": "cotton; POSTEMERGENCE, Rate 50 g/ha", "result": 10}, {"measurement": "Plant response rating, Cotton", "setting": "cotton; POSTEMERGENCE, Rate 200 g/ha", "result": 10}, {"measurement": "Plant response rating, Cotton", "setting": "cotton; PREEMERGENCE, Rate 50 g/ha", "result": 2}, {"measurement": "Plant response rating, Cotton", "setting": "cotton; Rate 200 g/ha, PREEMERGENCE", "result": 4}, {"measurement": "Plant response rating, Wheat", "setting": "wheat; POSTEMERGENCE, Rate 50 g/ha", "result": 3}, {"measurement": "Plant response rating, Wheat", "setting": "wheat; POSTEMERGENCE, Rate 200 g/ha", "result": 4}, {"measurement": "Plant response rating, Wheat", "setting": "wheat; PREEMERGENCE, Rate 50 g/ha", "result": 0}, {"measurement": "Plant response rating, Wheat", "setting": "wheat; Rate 200 g/ha, PREEMERGENCE", "result": 1}, {"measurement": "Plant response rating, Sugar beet", "setting": "sugar beet; POSTEMERGENCE, Rate 50 g/ha", "result": 9}, {"measurement": "Plant response rating, Sugar beet", "setting": "sugar beet; POSTEMERGENCE, Rate 200 g/ha", "result": 6}, {"measurement": "Plant response rating, Sugar beet", "setting": "sugar beet; PREEMERGENCE, Rate 50 g/ha", "result": 1}, {"measurement": "Plant response rating, Sugar beet", "setting": "sugar beet; Rate 200 g/ha, PREEMERGENCE", "result": 9}, {"measurement": "Plant response rating, Wild oat", "setting": "wild oat; POSTEMERGENCE, Rate 50 g/ha", "result": 3}, {"measurement": "Plant response rating, Wild oat", "setting": "wild oat; POSTEMERGENCE, Rate 200 g/ha", "result": 3}, {"measurement": "Plant response rating, Wild oat", "setting": "wild oat; Rate 200 g/ha, PREEMERGENCE", "result": 1}, {"measurement": "Plant response rating, Lambsquarter", "setting": "lambsquarters; POSTEMERGENCE, Rate 50 g/ha", "result": 8}, {"measurement": "Plant response rating, Lambsquarter", "setting": "lambsquarters; POSTEMERGENCE, Rate 200 g/ha", "result": 10}, {"measurement": "Plant response rating, Lambsquarter", "setting": "lambsquarters; PREEMERGENCE, Rate 50 g/ha", "result": 6}, {"measurement": "Plant response rating, Lambsquarter", "setting": "lambsquarters; Rate 200 g/ha, PREEMERGENCE", "result": 9}, {"measurement": "Plant response rating (0 to 10 scale), Blackgrass", "setting": "blackgrass; POSTEMERGENCE, Rate 50 g/ha", "result": 3}, {"measurement": "Plant response rating, Blackgrass", "setting": "blackgrass; POSTEMERGENCE, Rate 200 g/ha", "result": 3}, {"measurement": "Plant response rating, Blackgrass", "setting": "blackgrass; PREEMERGENCE, Rate 50 g/ha", "result": 0}, {"measurement": "Plant response rating, Blackgrass", "setting": "blackgrass; Rate 200 g/ha, PREEMERGENCE", "result": 5}, {"measurement": "Plant response rating (0 to 10 scale), Barley", "setting": "barley; POSTEMERGENCE, Rate 50 g/ha", "result": 4}, {"measurement": "Plant response rating, Barley", "setting": "barley; POSTEMERGENCE, Rate 200 g/ha", "result": 5}, {"measurement": "Plant response rating, Barley", "setting": "barley; PREEMERGENCE, Rate 50 g/ha", "result": 0}, {"measurement": "Plant response rating, Barley", "setting": "barley; Rate 200 g/ha, PREEMERGENCE", "result": 0}]}
